{
  "source": "patent US4308256A",
  "about": "“Method of inducing analgesia” (American Home Products Corporation, priority 1980, dated 1981)",
  "key": {"bleomycin hydrolase": {"target": "T1, bleomycin hydrolase (Homo sapiens, UniProt Q13867)", "T1 sequence (Q13867 1-455)": "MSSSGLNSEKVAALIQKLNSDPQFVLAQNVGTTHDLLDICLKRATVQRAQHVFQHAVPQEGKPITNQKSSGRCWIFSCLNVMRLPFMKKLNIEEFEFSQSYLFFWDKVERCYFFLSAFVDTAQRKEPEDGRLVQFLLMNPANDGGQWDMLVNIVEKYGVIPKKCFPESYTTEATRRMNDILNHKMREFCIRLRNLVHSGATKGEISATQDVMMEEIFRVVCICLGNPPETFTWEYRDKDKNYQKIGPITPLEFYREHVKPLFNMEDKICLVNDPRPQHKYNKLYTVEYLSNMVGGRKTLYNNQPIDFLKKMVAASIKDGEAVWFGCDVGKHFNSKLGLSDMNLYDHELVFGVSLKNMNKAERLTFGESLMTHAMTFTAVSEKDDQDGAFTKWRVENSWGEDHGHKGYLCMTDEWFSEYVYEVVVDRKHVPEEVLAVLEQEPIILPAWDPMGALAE", "details": "cited from earlier work"}, "male Charles River rats": {"system": "male Charles River rats", "assay": "D'Amour-Smith rat tail-flick procedure (radiant heat, 8 second cut-off), intraventricular injection", "type": "in vivo", "experimental": "Intraventricular cannulae, made of 27-gauge stainless steel tubing, are implanted in 300-400 g. male Charles River rats under pentobarbital anesthesia. After a recovery period of at least one week, the rats are restrained in a wire-mesh cylindrical chamber so that the tip of the tail can be positioned at the focal point of a radiant heat source. After an acclimatistation period of 5 minutes, the lamp is turned on and an electric clock activated. Movement of the tip of the tail exposes a photocell to the lamp, which turns off the thermal stimulus and stops the clock. If a rat fails to move its tail within 8 seconds, the heat is automatically turned off to prevent blistering. The intensity of the lamp is adjusted in each case to produce at least three baseline tail-flick latencies of 2.5-4.5 seconds. Tests are initially made every 2 minutes, then every 5 minutes and finally every 15 minutes.\nInitially, using the above outlined procedure, the effects of intraventricularly administered leucine-enkephalin are tested in rats according to the above procedure.\nThe rat tail flick procedure is repeated, first by the simultaneous intraventricular injection of both leucine-enkephalin and bestatin and then by the initial injection of bestatin followed one hour later by the injection of leucine-enkephalin.\nThe above procedure is repeated again, however, the bestatin is administered first and then one hour later the leucine-enkephalin is administered.\nThe effects of bestatin alone are tested in rats according to the rat tail flick procedure."}},
  "data": [
    {"compound": "CC(C)C[C@H](NC(=O)[C@@H](O)[C@H](N)Cc1ccccc1)C(=O)O", "note": "[bestatin, [(2S,3R)-3-amino-2-hydroxy-4-phenylbutanoyl]-L-leucine]", "values": [
      {"measurement": "Inhibition of bleomycin hydrolase", "setting": "bleomycin hydrolase", "result": "inhibitors"},
      {"measurement": "Tail-flick latency", "setting": "male Charles River rats; 200 μg bestatin alone into lateral ventricle, Rat 1, 2 min", "result": 4.92, "unit": "s"},
      {"measurement": "Tail-flick latency", "setting": "male Charles River rats; 200 μg bestatin alone into lateral ventricle, Rat 1, 4 min", "result": 7.36, "unit": "s"},
      {"measurement": "Tail-flick latency", "setting": "male Charles River rats; 200 μg bestatin into lateral ventricle, 200 μg leucine-enkephalin one hour later, 1 rat, 2 min after leucine-enkephalin", "result": 8.00, "unit": "s"},
      {"measurement": "Tail-flick latency", "setting": "male Charles River rats; 200 μg bestatin into lateral ventricle, 200 μg leucine-enkephalin one hour later, 1 rat, 4 min after leucine-enkephalin", "result": 8.00, "unit": "s"},
      {"measurement": "Tail-flick latency", "setting": "male Charles River rats; 200 μg bestatin into lateral ventricle, 200 μg leucine-enkephalin one hour later, 1 rat, 6 min after leucine-enkephalin", "result": 8.00, "unit": "s"},
      {"measurement": "Tail-flick latency", "setting": "male Charles River rats; 200 μg bestatin into lateral ventricle, 200 μg leucine-enkephalin one hour later, 1 rat, 8 min after leucine-enkephalin", "result": 8.00, "unit": "s"},
      {"measurement": "Tail-flick latency", "setting": "male Charles River rats; 200 μg bestatin into lateral ventricle, 200 μg leucine-enkephalin one hour later, 1 rat, 10 min after leucine-enkephalin", "result": 8.00, "unit": "s"},
      {"measurement": "Tail-flick latency", "setting": "male Charles River rats; 200 μg bestatin into lateral ventricle, 200 μg leucine-enkephalin one hour later, 1 rat, 12 min after leucine-enkephalin", "result": 8.00, "unit": "s"},
      {"measurement": "Tail-flick latency", "setting": "male Charles River rats; 200 μg bestatin into lateral ventricle, 200 μg leucine-enkephalin one hour later, 1 rat, 14 min after leucine-enkephalin", "result": 8.00, "unit": "s"},
      {"measurement": "Tail-flick latency", "setting": "male Charles River rats; 200 μg bestatin into lateral ventricle, 200 μg leucine-enkephalin one hour later, 1 rat, 19 min after leucine-enkephalin", "result": 8.00, "unit": "s"},
      {"measurement": "Tail-flick latency", "setting": "male Charles River rats; 200 μg bestatin into lateral ventricle, 200 μg leucine-enkephalin one hour later, 1 rat, 24 min after leucine-enkephalin", "result": 8.00, "unit": "s"},
      {"measurement": "Tail-flick latency", "setting": "male Charles River rats; 200 μg bestatin into lateral ventricle, 200 μg leucine-enkephalin one hour later, 1 rat, 29 min after leucine-enkephalin", "result": 8.00, "unit": "s"},
      {"measurement": "Tail-flick latency", "setting": "male Charles River rats; 200 μg bestatin into lateral ventricle, 200 μg leucine-enkephalin one hour later, 1 rat, 34 min after leucine-enkephalin", "result": 8.00, "unit": "s"},
      {"measurement": "Tail-flick latency", "setting": "male Charles River rats; 200 μg bestatin into lateral ventricle, 200 μg leucine-enkephalin one hour later, 1 rat, 53 min after leucine-enkephalin", "result": 8.00, "unit": "s"},
      {"measurement": "Tail-flick latency", "setting": "male Charles River rats; 200 μg bestatin into lateral ventricle, 200 μg leucine-enkephalin one hour later, 1 rat, 58 min after leucine-enkephalin", "result": 8.00, "unit": "s"},
      {"measurement": "Tail-flick latency", "setting": "male Charles River rats; 200 μg bestatin into lateral ventricle, 200 μg leucine-enkephalin one hour later, 1 rat, 63 min after leucine-enkephalin", "result": 6.07, "unit": "s"},
      {"measurement": "Tail-flick latency", "setting": "male Charles River rats; 200 μg bestatin into lateral ventricle, 200 μg leucine-enkephalin one hour later, 1 rat, 68 min after leucine-enkephalin", "result": 2.62, "unit": "s"},
      {"measurement": "Tail-flick latency", "setting": "male Charles River rats; 200 μg leucine-enkephalin + 200 μg bestatin injected together into lateral ventricle, 1 rat, 2 min", "result": 4.21, "unit": "s"},
      {"measurement": "Tail-flick latency", "setting": "male Charles River rats; 200 μg leucine-enkephalin + 200 μg bestatin injected together into lateral ventricle, 1 rat, 4 min", "result": 5.75, "unit": "s"},
      {"measurement": "Tail-flick latency", "setting": "male Charles River rats; 200 μg leucine-enkephalin + 200 μg bestatin injected together into lateral ventricle, 1 rat, 8 min", "result": 8.00, "unit": "s"},
      {"measurement": "Tail-flick latency", "setting": "male Charles River rats; 200 μg leucine-enkephalin + 200 μg bestatin injected together into lateral ventricle, 1 rat, 10 min", "result": 8.00, "unit": "s"},
      {"measurement": "Tail-flick latency", "setting": "male Charles River rats; 200 μg leucine-enkephalin + 200 μg bestatin injected together into lateral ventricle, 1 rat, 12 min", "result": 8.00, "unit": "s"},
      {"measurement": "Tail-flick latency", "setting": "male Charles River rats; 200 μg leucine-enkephalin + 200 μg bestatin injected together into lateral ventricle, 1 rat, 14 min", "result": 8.00, "unit": "s"},
      {"measurement": "Tail-flick latency", "setting": "male Charles River rats; 200 μg leucine-enkephalin + 200 μg bestatin injected together into lateral ventricle, 1 rat, 19 min", "result": 8.00, "unit": "s"},
      {"measurement": "Tail-flick latency", "setting": "male Charles River rats; 200 μg leucine-enkephalin + 200 μg bestatin injected together into lateral ventricle, 1 rat, 24 min", "result": 8.00, "unit": "s"},
      {"measurement": "Tail-flick latency", "setting": "male Charles River rats; 200 μg leucine-enkephalin + 200 μg bestatin injected together into lateral ventricle, 1 rat, 29 min", "result": 8.00, "unit": "s"},
      {"measurement": "Tail-flick latency", "setting": "male Charles River rats; 200 μg leucine-enkephalin + 200 μg bestatin injected together into lateral ventricle, 1 rat, 34 min", "result": 8.00, "unit": "s"},
      {"measurement": "Tail-flick latency", "setting": "male Charles River rats; 200 μg leucine-enkephalin + 200 μg bestatin injected together into lateral ventricle, 1 rat, 39 min", "result": 8.00, "unit": "s"},
      {"measurement": "Tail-flick latency", "setting": "male Charles River rats; 200 μg leucine-enkephalin + 200 μg bestatin injected together into lateral ventricle, 1 rat, 53 min", "result": 8.00, "unit": "s"},
      {"measurement": "Tail-flick latency", "setting": "male Charles River rats; 200 μg leucine-enkephalin + 200 μg bestatin injected together into lateral ventricle, 1 rat, 58 min", "result": 8.00, "unit": "s"},
      {"measurement": "Tail-flick latency", "setting": "male Charles River rats; 200 μg leucine-enkephalin + 200 μg bestatin injected together into lateral ventricle, 1 rat, 63 min", "result": 4.65, "unit": "s"},
      {"measurement": "Tail-flick latency", "setting": "male Charles River rats; 200 μg leucine-enkephalin + 200 μg bestatin injected together into lateral ventricle, 1 rat, 68 min", "result": 8.00, "unit": "s"},
      {"measurement": "Tail-flick latency", "setting": "male Charles River rats; 200 μg leucine-enkephalin + 200 μg bestatin injected together into lateral ventricle, 1 rat, 73 min", "result": 4.95, "unit": "s"},
      {"measurement": "Tail-flick latency", "setting": "male Charles River rats; 200 μg leucine-enkephalin + 200 μg bestatin injected together into lateral ventricle, 1 rat, 78 min", "result": 2.10, "unit": "s"},
      {"measurement": "Analgesia induced by bestatin alone", "setting": "male Charles River rats; 200 μg level, lateral ventricle, rat", "result": "does not appear to induce any clearcut analgesia"},
      {"measurement": "Tail-flick latency", "setting": "male Charles River rats; 400 μg bestatin alone into lateral ventricle, Rat 1, 210 min", "result": 8.00, "unit": "s"},
      {"measurement": "Tail-flick latency", "setting": "male Charles River rats; 400 μg bestatin alone into lateral ventricle, Rat 1, 225 min", "result": 8.00, "unit": "s"},
      {"measurement": "Tail-flick latency", "setting": "male Charles River rats; 400 μg bestatin alone into lateral ventricle, Rat 1, 240 min", "result": 8.00, "unit": "s"},
      {"measurement": "Tail-flick latency", "setting": "male Charles River rats; 400 μg bestatin alone into lateral ventricle, Rat 1, 255 min", "result": 4.71, "unit": "s"},
      {"measurement": "Tail-flick latency", "setting": "male Charles River rats; 400 μg bestatin alone into lateral ventricle, Rat 2, 2 min", "result": 2.16, "unit": "s"},
      {"measurement": "Tail-flick latency", "setting": "male Charles River rats; 400 μg bestatin alone into lateral ventricle, Rat 2, 4 min", "result": 5.40, "unit": "s"},
      {"measurement": "Tail-flick latency", "setting": "male Charles River rats; 400 μg bestatin alone into lateral ventricle, Rat 2, 6 min", "result": 4.62, "unit": "s"},
      {"measurement": "Tail-flick latency", "setting": "male Charles River rats; 400 μg bestatin alone into lateral ventricle, Rat 2, 8 min", "result": 6.51, "unit": "s"},
      {"measurement": "Tail-flick latency", "setting": "male Charles River rats; 400 μg bestatin alone into lateral ventricle, Rat 2, 10 min", "result": 8.00, "unit": "s"},
      {"measurement": "Tail-flick latency", "setting": "male Charles River rats; 400 μg bestatin alone into lateral ventricle, Rat 2, 12 min", "result": 8.00, "unit": "s"},
      {"measurement": "Tail-flick latency", "setting": "male Charles River rats; 400 μg bestatin alone into lateral ventricle, Rat 2, 14 min", "result": 8.00, "unit": "s"},
      {"measurement": "Tail-flick latency", "setting": "male Charles River rats; 400 μg bestatin alone into lateral ventricle, Rat 2, 16 min", "result": 8.00, "unit": "s"},
      {"measurement": "Tail-flick latency", "setting": "male Charles River rats; 400 μg bestatin alone into lateral ventricle, Rat 2, 18 min", "result": 8.00, "unit": "s"},
      {"measurement": "Tail-flick latency", "setting": "male Charles River rats; 400 μg bestatin alone into lateral ventricle, Rat 2, 20 min", "result": 8.00, "unit": "s"},
      {"measurement": "Tail-flick latency", "setting": "male Charles River rats; 400 μg bestatin alone into lateral ventricle, Rat 2, 22 min", "result": 8.00, "unit": "s"},
      {"measurement": "Tail-flick latency", "setting": "male Charles River rats; 400 μg bestatin alone into lateral ventricle, Rat 2, 24 min", "result": 8.00, "unit": "s"},
      {"measurement": "Tail-flick latency", "setting": "male Charles River rats; 400 μg bestatin alone into lateral ventricle, Rat 2, 26 min", "result": 8.00, "unit": "s"}
    ]}
  ]
}
